Values after ≈ are worked out from the molar mass of the structure shown. Read-outs that look alike come from different tables or passages of the source.
How the values were obtained:
[1] = tested on: Plasmodium falciparum: strain W2; test: Plasmodium falciparum growth inhibition assay (EC50 determinations); type: cell-based; settings: Plasmodium falciparum, W2; against P. falciparum, in vitro; read-out: potency against P. falciparum
Experimental: The growth inhibition assay for P. falciparum was conducted as described previously^29 with minor modifications. […] Following 48 hours of incubation, the cells were fixed by adding 0.1 ml of 2% formaldehyde in phosphate buffered saline, pH=7.4 (PBS). […] Parasitemias were determined from dot plots (forward scatter vs. fluorescence) using [sequence] software (Becton Dickinson). EC50 values for growth inhibition were determined from plots of percentage control parasitemia over inhibitor concentration using GraphPad Prism software.

[2] = Dissolution in DMSO (stock solution); type: physicochemical
Experimental: The way in which the formulations were prepared involved preparing a stock solution of the compound in DMSO, and then performing dilutions from this stock such that the requisite final concentration was obtained after the addition of all the necessary formulation components. Practically speaking, this was accomplished by partitioning a portion of each compound into separate 4 mL vials, and then placing these vials on the lyophilizer to ensure the compounds were completely dry. This led to a vial containing 49.5 mg of the 3′ OZ439 regioisomer, while the other held 51.0 mg of OZ439. […] This entailed adding 309.4 μL of DMSO to the vial with the 3′ OZ439 regioisomer, whereas 318.8 μL of DMSO was added to the vial containing actual OZ439. In the past, an issue has not arisen when doing this. However, this time, a major problem presented itself. The problem was not with the newly developed 3′ regioisomer of OZ439, but with OZ439 itself. After addition of DMSO to the vials, the majority of the 3′ regioisomer dissolved, whereas none of the actual OZ439 did. In an attempt to assist with dissolving the material, the two vials were then placed a water bath set to 42° C. […] The vial was then placed in a bath sonicator for 60 minutes, ultimately to no avail as […] dissolution of the material. […] At this point, the vial was then placed on the Hi-Vac to remove the DMSO. Once dry, the material was partitioned again in an attempt to get the material to dissolve at a lower concentration.
For the second attempt at preparing the necessary formulation for the actual OZ439, the material was partitioned such that when the dilutions were performed, the highest concentration that would be prepared from the stock solution would be the 10 mg/kg doses. As such, the 80, 40, and 30 mg/kg doses were all prepared directly by partitioning the requisite amounts into separate vials and then adding the necessary amounts of the formulation to reach the desired concentration. For the vial that was employed in aliquoting from to prepare the other concentrations, it contained 15.5 mg of OZ439. DMSO (775 μL) was then added to this vial, to yield a final concentration of 20 mg/mL (55 mM). […] Only after allowing the vial to warm in a 55° C. water bath for 30 minutes did the material finally dissolve. At this point, the material was brought back to the bench to aliquot the material en route to preparing the remaining doses. However, upon being removed from the bath, the compound began to crash out as it cooled to room temperature. For this reason, the vial was heated with a heat gun for about 10-15 seconds to get the material to dissolve fully once again. […]

[3] = Dissolution in oral gavage formulation; type: physicochemical; settings: 10% DMSO, 40% of a 20% solution of 2-hydroxypropyl-cyclodextrin in water, 50% PEG400; 80, 40 and 30 mg/kg doses; sonication
Experimental: As such, we chose to screen the two regioisomers in a head-to-head study against P. berghei infected mice. In order to carry out this experiment, both compounds first needed to be formulated in a manner that would allow for treatment of the mice by oral gavage. […] Returning to the 3′ regioisomer, the actual doses were then successfully prepared according to the following instructions. The necessary amount of DMSO solution was removed from the vial and added to a new vial. For the 80 mg/kg dose, no additional DMSO was needed to be added to the vial. […] Upon adding the aqueous portion to the 80, 40, and 30 mg/kg doses, a white solution formed (resembled more of an emulsion then a heterogeneous solution). The vials were then placed in a bath sonicator in an attempt to redissolve the material. […] However, even after storing the material at −20° C., the compound was not observed to crash out of the formulation again. For the second attempt at preparing the necessary formulation for the actual OZ439, the material was partitioned such that when the dilutions were performed, the highest concentration that would be prepared from the stock solution would be the 10 mg/kg doses. As such, the 80, 40, and 30 mg/kg doses were all prepared directly by partitioning the requisite amounts into separate vials and then adding the necessary amounts of the formulation to reach the desired concentration. […]

PC-3 xenograft = test: PET imaging of PC-3 xenograft mouse; type: in vivo; settings: tail vein injection
Source text: Compounds 1 and specific examples B9[^18F] and B20[^18F] above are PET imaging reagent with applications in cancer, infectious disease, and inflammation. […] Additional, more quantitative, biodistribution data (e.g., biodistribution data for probes B9 and B20) is included in FIGS. 5-8. […] The imaging reagents above provides a new paradigm for imaging diverse cancer types based on metabolic changes in iron metabolism in tumors and other aspects of tumor biology (hypoxia, necrosis, macrophage infiltration). Imaging primary tumors and metastases and other therapeutic conditions involving aberrant production of labile Fe(II) such as inflammation and infection.

Plasmodium berghei = Plasmodium berghei mouse malaria model (Peters test, cures at 30 days); type: in vivo; settings: po, 720 h, oral gavage, read-out: Mice Cured (%)
Source text: The suppressive 4-day “Peters test” ^27 involving P. berghei infected mice provides a convenient and cost effective means to assess the overall in vivo performance of pre-clinical antimalarials. […] Mice were followed for 30 days and judged to have been cured of the infection based on the lack of detectable parasitemia at the end of the study.
Female Swiss Webster Mice (average of 20 g body weight) were infected intraperitoneally with 10^6 Plasmodium berghei-infected erythrocytes collected from a previously infected mouse. […] There were five mice in each test arm. Infections were monitored by daily microscopic evaluation of Giemsa-stained blood smears starting on day seven. Parasitemia were determined by counting the number of infected and uninfected erythrocytes. Body weight was measured over the course of the treatment. […] Animal survival and morbidity were closely monitored for up to 30 days post-infection when the experiment was terminated. In some cases survival is expressed as a PD100 or PD50, the dose that produces respectively 100% or 50% cures in treated animals at 30 days post infection.

[4] = human, in vivo; cited from earlier work
[5] = Kinetic solubility in PBS; type: physicochemical; settings: kinetic solubility in PBS (pH = 7.4), final DMSO 5%, average of three determinations
[6] = tested on: clinical K13-mutant strain; settings: pulsed exposure; cited from earlier work
[7] = Mouse liver microsome assay (half-life, intrinsic clearance)
Source text: A second hypothesis regarding trans-R^A substitution (R^A in Scheme 1) was that the resulting de-symmetrized molecular topology would impact the vivo PK/PD properties of these analogs. […] To explore possible metabolic differences, we evaluated selected analogs with mouse liver microsomes and derived intrinsic clearance (CLint) values (Table 1).

[8] = tested on: K13 revertant strain bearing the wild type K13 allele; settings: pulsed exposure; cited from earlier work
[9] = 160 mg/mL (341 mM) in DMSO, water bath 42° C., then 55° C. and sonication for OZ439

Question: With `c1cc([C@@H]2CCC[C@]3(C2)OOC2(O3)C3CC4CC(C3)CC2C4)ccc1OCCN1CCOCC1` (stereo in doubt) [A5, 4-(2-(4-(dispiro[adamantane-2,3′-[1,2,4]trioxolane-5′,1″-cyclohexan]-3″-yl)phenoxy)ethyl)morpholine] as the compound, how does the EC50 [1] read?
Answer: 19.5 ± 1.6 nM

Question: What about the “dissolution in DMSO” value [2, 9] of the same compound?
Answer: dissolved much more rapidly in DMSO than did OZ439

Question: What about the “dissolution in DMSO” value ([2]; 160 mg/mL (341 mM) in DMSO, water bath 42° C., then 55° C. and sonication for OZ439, listed as 3′ regioisomer of OZ439) of the same compound?
Answer: completely dissolved

Question: And the dissolution in formulation [3]?
Answer: completely dissolved

Question: For `O=C(NCCCNC(=O)C12CC3CC(C1)[C@]1(OO[C@]4(CC[C@@H](c5ccc(OCCN6CCOCC6)cc5)CC4)O1)C(C3)C2)c1ccc(F)cc1` [B9, N-(3-(4-fluorobenzamido)propyl)-4″-(4-(2-morpholinoethoxy)phenyl)dispiro[adamantane-2,3′-[1,2,4]trioxolane-5′,1″-cyclohexane]-5-carboxamide], which PET distribution (PC-3 xenograft) is on record?
Answer: accumulation in the small intestine

Question: For `CC(C)(N)CNC(=O)C[C@H]1CC[C@]2(CC1)OO[C@]1(O2)C2CC3CC(C2)CC1C3` [2a, arterolane, reference compound], which responders at 13.6 mg/kg/day (Plasmodium berghei; Table 2, tosylate salt, 13.6 mg/kg/day, once a day for four days, no parasitemia at 30 days) is on record?
Answer: 100%

Question: What about the responders at 1 mg/kg/day (Plasmodium berghei; Table 3, free base, 1 mg/kg/day, four daily doses) of the same compound?
Answer: 0%

Question: What about the responders at 4 mg/kg/day (Plasmodium berghei; Table 3, free base, 4 mg/kg/day, four daily doses) of the same compound?
Answer: 80%

Question: What about the responders at 6 mg/kg/day (Plasmodium berghei; Table 3, free base, 6 mg/kg/day, four daily doses) of the same compound?
Answer: 100%

Question: And the responders at 10 mg/kg/day (Plasmodium berghei; Table 3, free base, 10 mg/kg/day, four daily doses)?
Answer: 100%

Question: What about the responders at 4 mg/kg/day (Plasmodium berghei; Table 4, 4 mg/kg/day, once a day for four days) of the same compound?
Answer: 20%

Question: And the responders at 6 mg/kg/day (Plasmodium berghei; Table 4, 6 mg/kg/day, once a day for four days)?
Answer: 80%

Question: What about the half-life [4] of the same compound?
Answer: 2 to 3 h

Question: What about the “Solubility” value [5] of the same compound?
Answer: 433 µM (≈ 170 µg/mL)

Question: And the “time to reduce early ring viability by 50% (t50)” value [6]?
Answer: ~3 h

Question: What about the “T1/2” value ([7]; half-life when incubated with mouse liver microsomes) of the same compound?
Answer: 2.13 h

Question: And the “T1/2 (min) No NADPH” value ([7]; mouse liver microsomes, no NADPH)?
Answer: stable

Question: And the CLint ([7]; mouse, microsomes)?
Answer: 5.4 μL/min/mg of protein

Question: What about the “time to reduce early ring viability by 50% (t50)” value [8] of the same compound?
Answer: ~1 h

Question: For `c1cc([C@H]2CC[C@]3(CC2)OO[C@]2(O3)C3CC4CC(C3)CC2C4)ccc1OCCN1CCOCC1` [OZ439, artefenomel, reference compound], which EC50 [1] is on record?
Answer: 7.9 ± 0.2 nM

Question: And the “dissolution in DMSO” value ([2]; 20 mg/mL (55 mM) in DMSO)?
Answer: did not readily dissolve

Question: What about the “dissolution in DMSO” value [2, 9] of the same compound?
Answer: did not dissolve

Question: And the dissolution in formulation [3]?
Answer: unsuccessful in getting the material to dissolve

Reference: US12139470B2, “Trioxolane agents” (The Regents of the University of California, priority 2017, dated 2024)
